Test results: ChEMBL document CHEMBL5726364, “Uracil derivatives as AXL and c-MET kinase inhibitors” (2017)

What follows are compounds tested against T1, Tyrosine-protein kinase receptor UFO (Homo sapiens, UniProt P30530) (assay: Kinase Assay: The ability of compounds to inhibit the kinase activity of recombinant human baculovirus-expressed AXL was measured by homogeneous TRF (HTRF) using Cisbio's KinEASE assay system in white 384-well Optiplates. Assay buffer contained 1 mM DTT, 2 mM MnCl2, 2% DMSO, 50 nM supplement enzymatic buffer, and 1× enzymatic buffer. A 2× concentration of tyrosine kinase (TK) substrate-biotin/ATP mixture made in assay buffer was added to plates at 10 μL/well using the Multidrop Combi (Thermo Fisher Scientific, Waltham, Mass.). […] Compounds (100 nL), diluted in 100% DMSO on the Biomek FX, (Beckman Coulter, Inc., Brea, Calif.), were transferred to the assay plates using the Biomek FX pintool (2.5% final DMSO in assay). A 2× concentration (final=12 ng/mL) of GST-AXL (diluted in assay buffer) was added to plates at 10 uL/well using the Multidrop Combi. Plates were sealed, briefly shaken and incubated at 25° C. for 30 minutes. […] Plates were sealed, briefly shaken and incubated at 25° C. for 1 hour.).
T1 sequence (P30530 whole entry): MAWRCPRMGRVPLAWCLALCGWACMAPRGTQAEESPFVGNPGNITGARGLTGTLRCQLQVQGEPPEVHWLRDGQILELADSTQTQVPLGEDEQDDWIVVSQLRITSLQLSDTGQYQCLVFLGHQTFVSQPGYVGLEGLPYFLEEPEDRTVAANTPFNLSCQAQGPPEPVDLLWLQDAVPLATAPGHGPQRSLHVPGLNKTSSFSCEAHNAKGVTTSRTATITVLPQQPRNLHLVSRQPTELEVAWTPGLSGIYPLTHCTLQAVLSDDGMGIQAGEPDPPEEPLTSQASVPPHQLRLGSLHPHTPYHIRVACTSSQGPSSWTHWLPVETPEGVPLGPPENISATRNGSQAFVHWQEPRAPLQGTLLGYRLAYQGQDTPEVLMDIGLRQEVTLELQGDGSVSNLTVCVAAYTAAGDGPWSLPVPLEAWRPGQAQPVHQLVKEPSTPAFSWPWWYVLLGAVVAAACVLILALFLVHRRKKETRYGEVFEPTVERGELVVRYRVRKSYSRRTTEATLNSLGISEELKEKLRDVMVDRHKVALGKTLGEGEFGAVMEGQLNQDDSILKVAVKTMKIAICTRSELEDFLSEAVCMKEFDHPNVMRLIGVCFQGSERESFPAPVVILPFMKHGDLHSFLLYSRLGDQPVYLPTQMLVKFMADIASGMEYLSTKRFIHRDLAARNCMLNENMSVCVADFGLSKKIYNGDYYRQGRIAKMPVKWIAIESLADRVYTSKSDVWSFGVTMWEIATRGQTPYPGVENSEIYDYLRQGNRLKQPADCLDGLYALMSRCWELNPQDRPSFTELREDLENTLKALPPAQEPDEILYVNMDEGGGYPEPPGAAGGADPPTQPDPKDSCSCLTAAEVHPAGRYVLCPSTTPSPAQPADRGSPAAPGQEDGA

IC50 [nM] | Compound
< 10 | C=CCn1cc(C(=O)Nc2ccc(Oc3ccnc4cc(OC)c(OC)cc34)c(F)c2)c(=O)n(CC=C)c1=O
< 10 | CCn1cc(C(=O)Nc2ccc(Oc3ccnc4cc(OC)c(OC)cc34)c(Cl)c2)c(=O)n(-c2ccc(F)cc2)c1=O
< 10 | CCn1nc(C(=O)Nc2ccc(Oc3ccnc4cc(OC)c(OC)cc34)cn2)c(=O)n(-c2ccc(F)cc2)c1=O
